Active and inactive are the calls of the source. The rule behind the calls is not given here.
Key:
Candida albicans = assay: Antifungal activity against Candida albicans ATCC 10453 at 200 ug/disk by standard disk assay; format: functional, organism-based
Ascobolus = assay: Antifungal activity against Ascobolus furfuraceus NRRL 6460 assessed as reduction in radical growth rate at 200 ug/disk by centerpoint inoculation disk assay; format: functional; set-up: scale not given: the % may be the effect or the level left
Bacillus subtilis = assay: Antibacterial activity against Bacillus subtilis ATCC 6051 at 100 ug/disk by standard disk assay; format: functional; conditions: read-out: IZ

CC(CCOc1ccc(C(=O)NCCC(=O)O)cc1)C(=O)O (configuration not stated)
Activity (Candida albicans): inactive

CC(C(=O)O)C(O)COc1ccc(C(=O)O)cc1 (configuration not stated)
Activity (Candida albicans): inactive

CC(CCOc1ccc(C(=O)O)cc1)C(=O)O (configuration not stated) [SPOROVEXIN A]
Activity (Ascobolus): 90% | Activity (Candida albicans): inactive | zone of inhibition at 100 µg/disc (Bacillus subtilis): 9 mm

O=C1C[C@@H](O)[C@]23Oc4ccc(O)c5c4[C@](Oc4cccc1c42)(O3)[C@@H]1O[C@@H]1[C@H]5O
Activity (Ascobolus): 40% | Activity (Candida albicans): inactive

Source: ChEMBL document CHEMBL1141836, “Sporovexins A-C and a new preussomerin analog: antibacterial and antifungal metabolites from the coprophilous fungus Sporormiella vexans” (1999)
